Measured values taken from patent US20250313544A1, “INHIBITORS OF GLUTATHIONE S-TRANSFERASE ZETA 1 (GSTZ1) AND METHODS OF USE” (H. LEE MOFFITT CANCER CENTER AND RESEARCH INSTITUTE, INC., priority 2022, published 2025).

Molecular target: T1, GSTZ1 (Homo sapiens, UniProt O43708)
T1 sequence (O43708 1-216): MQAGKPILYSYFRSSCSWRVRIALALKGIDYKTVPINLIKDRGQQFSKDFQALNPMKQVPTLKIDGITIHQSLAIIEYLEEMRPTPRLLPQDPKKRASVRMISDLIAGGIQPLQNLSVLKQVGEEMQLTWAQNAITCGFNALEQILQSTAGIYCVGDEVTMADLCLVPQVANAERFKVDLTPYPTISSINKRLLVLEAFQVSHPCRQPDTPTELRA
Assay: GSTZ1 enzymatic activity assay (CNBF-GSH adduct absorbance at 420 nm)
Type: biochemical
Parameters: dose or concentration left out as unconfirmed
Settings: without UV irradiation, 10 mins, room temperature
Protocol: The GSTZ1 activity assay with its substrate 4-Chloro-7-nitrobenzofurazan (CNBF) was read at 420 nm, which indicates the absorbance of CNBF-GSH adducts as previously reported^61. For experiments without UV irradiation, the reaction was started by adding DMSO or probe 17, 10 μg of recombinant GSTZ1 proteins, 0.2 mM of CNBF, and 2 mM of GSH at room temperature in a final volume of 100 μl HEPES buffer at pH 5.5. For UV irradiation experiments, GSTZ1 protein was incubated with DMSO or probe 17 for 10 minutes under UV light. Each reaction was performed as at least two biological replicates. Spectrophotometry measurements were recorded using an M5 Spectramax plate reader (Molecular devices). Data was processed and analyzed using Excel and GraphPad Prism 9.0. Optical density (OD) readouts of GSTZ1-catalyzed reactions were corrected by subtracting measurements of non-enzymatic reactions. Relative GSTZ1 activity was calculated by normalizing corrected OD readouts of GSTZ1-catalyzed reactions with probe 17 to that of GSTZ1-catalyzed reactions without probe 17. For assays with UV irradiation, recombinant GSTZ1 was produced in-house. To this end, 6His-GFP tag full length human GSTZ1 (Uniprot ID: 043708) with TEV protease cleavage site in pET28-a-(+) vector (GeneScript) was transformed into BL21 DE3 cells (Cat #EC0114, ThermoFisher). […]

C#CCCC1(CCC(=O)N2CCC(COc3nc4ccccc4nc3C)CC2)N=N1 [Probe 17, 3-(3-(but-3-yn-1-yl)-3H-diazirin-3-yl)-1-(4-(((3-methylquinoxalin-2-yl)oxy)methyl)piperidin-1-yl)propan-1-one]
GSTZ1 activity reduced by: 68%
